According to US4711898A, “4-quinolone derivatives having anti-inflammatory, anti-allergic, antitussive, expectorant and antithrombotic activity” (Nippon Shinyaku Co., Ltd., priority 1982, dated 1987):
Structures can show the parent of a compound that is named as a salt. Where two headings read alike, the source gives them in different places.

Tests used:
[1] = test system: passive cutaneous anaphylaxis (DNP-As homocytotropic antiserum); assay: passive cutaneous anaphylatic assay (PCA) in rats; type: in vivo, Wistar strain rats; conditions: 10 mg/kg orally, one hour before antigen; for inhibition in vivo at 10 mg/kg: Rattus norvegicus, po, 1 h, read-out: PCA Inhibition Ratio %
Outline: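 Wistar rats were sensitised intradermally with diluted DNP-As homocytotropic antiserum and challenged 72 h later with i.v. DNP-As plus Evans Blue. Compounds were given orally at 10 mg/kg 1 h before antigen. Dye extracted from skin sites 30 min post-challenge gave inhibition relative to controls.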

carrageenin edema = assay: Carrageenin edema at the hind foot of rats; type: in vivo, SD-strain rats; conditions: 200 mg/kg per os, one hour before carrageenin, foot volume three hours after; for inhibition in vivo at 200 mg/kg: Rattus norvegicus, po, 3 h, read-out: % Inhibition (carrageenin edema)
Method: The anti-inflammatory action of the compounds of the present invention were evaluated by measuring the inhibition against carrageenin edema as set forth below. Carrageenin edema at the hind foot of rats: Experimental method. SD-strain rats of body weights of around 150 grams were used, each group consisting of five rats. A solution (0.1 ml) of 0.5% carrageenin dissolved in physiological saline water was subcutaneously injected into the right hind foot pat of the rats and, one hour prior to the injection of carrageenin, 200 mg/kg of test compound was given per os. Foot volumes of the rats before the carrageenin treatment and those of three hours after the treatment were measured and the differences were compared with those of the control group to adopt as a target of the effect of the compounds.

[2] = test system: SRS-A (slow reacting substance of anaphylaxis) contraction of ileum; assay: Anti-SRS-A action using ileus of guinea pigs; type: cell-based, Hartley strain male guinea pigs; conditions: 5 min, guinea pig ileum, SRS-A 20 units, compound five minutes before; for inhibition at 1 µM: Cavia porcellus, 1/1000 mM, read-out: 1/1000 mM SRS-A Inhibition Ratio %
Outline: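 Ileum from male Hartley guinea pigs (300 to 350 g) in oxygenated Tyrode with 10^-7 g/ml atropine and 10^-6 g/ml pyrilamine, contracted by 20 units SRS-A. Compound added five minutes before; isotonic contraction height compared with SRS-A alone.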

male mice = assay: Acute toxicity after oral administration; type: in vivo
Method: Acute toxicity was determined two weeks after oral administration of 4000 mg/kg to male mice. Four mice (denominator) are used in each group and the dead numbers are given as the numerator. The compounds of the present invention show little, if any, toxicity.

[3] = test system: platelet aggregation induced by ADP, collagen and AA; assay: Action against Platelet Coagulation (aggregation in platelet rich plasma of rabbits); type: cell-based, Male rabbits; conditions: Oryctolagus cuniculus; for inhibition at 100 µM: final concentration 10^-4 M; for inhibition at 10 µM: final concentration 10^-5 M; for inhibition at 1 µM: final concentration 10^-6 M
Method: Action against Platelet Coagulation was determined as follows: Male rabbits with body weights of 3 kg or around were used. Blood was taken from their carotid artery and, immediately thereafter, 1/10 volume (to the blood) of 3.8% aqueous solution of sodium citrate was added thereto. The mixture was centrifuged at room temperature (400 g; 10 minutes) to give platelet rich plasma (abbreviated as PRP: containing 5×10^5 platelets per mm^3). The PRP was then placed into a cell for platelet coagulation meter (Niko Bioscience), stirred, 5 microliters of test compound solution in dimethyl sulfoxide was added and, one minute thereafter, 5 micromolar of ADP, 10 micrograms/ml of collagen or 25 microliters of arachidoic acid (AA) was added thereto to observe changes of extinctions. From the maximum coagulation value at the time of administration the of test compound against that at the time of the solvent addition, inhibition was calculated and the effect of the compounds against the platelet coagulation was determined.

[4] = cited from earlier work
[5] = AA 150 μM, read-out: Inhibition (%) of platelet aggregation, AA (150 μM)
[6] = ADP 5 μM, read-out: Inhibition (%) of platelet aggregation, ADP (5 μM)
[7] = collagen 10 μg/ml, read-out: Inhibition (%) of platelet aggregation, Collagen (10 μg/ml)
[8] = 4000 mg/kg oral, male mice, two weeks, dead/group of four

| Compound | inhibition in vivo at 10 mg/kg [1] [%] | inhibition in vivo at 200 mg/kg (carrageenin edema) [%] | inhibition at 1 µM [2] [%] | further results |
| --- | --- | --- | --- | --- |
| CCCCCCn1c(-c2ccccc2)cc(=O)c2cc(C(=O)O)ccc21 [Example 20] | 26.4 | 10.6 | 83.9 | Lethal Ratio (male mice; mouse, in vivo): 1/4 |
| COC(=O)c1ccc2[nH]c(-c3ccccc3I)cc(=O)c2c1 [Example 28] | 19.6 | 15.9 | 55.6 | Lethal Ratio (male mice; mouse, in vivo): 0/4 |
| Cc1ccccc1-c1cc(=O)c2cc(C(=O)O)ccc2[nH]1 [Example 42] | 43.2 | 11.8 | 17.4 | Lethal Ratio (male mice; mouse, in vivo): 0/4 |
| COC(=O)c1ccc2[nH]c(-c3ccccc3OC)cc(=O)c2c1 [Example 56] | 22.3 | – | 25.2 | Lethal Ratio (male mice; mouse, in vivo): 1/4 |
| CCOC(=O)c1cccc2c1N=C(c1ccccc1Cl)CC2=O [Example 83, ethyl 2-(2-chlorophenyl)-4-quinolone-8-carboxylate] | 28.5 | 22.5 | 75.9 | inhibition at 100 µM [3, 5]: 100%; inhibition at 10 µM [3, 5]: 3.3%; inhibition at 100 µM [3, 6]: 18.5%; inhibition at 100 µM [3, 7]: 100%; inhibition at 10 µM [3, 7]: 14%; Lethal Ratio (male mice; [8]): 0/4 |
| O=C(O)c1cccc2c(=O)cc(-c3ccccc3Cl)[nH]c12 [Example 84] | – | – | – | Lethal Ratio (male mice; [8]): 0/4 |
| O=C(O)c1cccc2c(=O)cc(-c3ccccc3Cl)[nH]c12 [Example 85] | 17 | – | 27.9 | Lethal Ratio (male mice; mouse, in vivo): 0/4 |
| CCOC(=O)c1cccc2c(=O)cc(-c3ccc(Cl)cc3Cl)[nH]c12 [Example 89] | 26.2 | – | 55.6 | Lethal Ratio (male mice; mouse, in vivo): 0/4 |
| CCOC(=O)c1cccc2c(=O)cc(-c3ccc(C)cc3C)[nH]c12 [Example 94] | 25.7 | – | 78.6 | Lethal Ratio (male mice; mouse, in vivo): 1/4 |
| CCOC(=O)c1cccc2c(O)cc(-c3ccccc3Cl)nc12 [Example 100, Ethyl 2-(2-chlorophenyl)-4-hydroxyquinoline-8-carboxylate hydrochloride] | 29.7 | – | 70.5 | Lethal Ratio (male mice; [8]): 0/4 |
| CCOC(=O)c1cccc2c(=O)cc(-c3ccc(OC)cc3OC)[nH]c12 [Example 108] | 14 | 51 | 95 | – |
| O=C1CC(c2ccccc2Cl)=Nc2c1cccc2C(=O)OCCO [Example 109, Beta-Hydroxyethyl 2-(2-chlorophenyl)-4-quinolone-8-carboxylate] | 29.2 | 30.7 | 100 | – |
| C=CCOC(=O)c1cccc2c1N=C(c1ccccc1Cl)CC2=O [Example 110, Allyl 2-(2-chlorophenyl)-4-quinolone-8-carboxylate] | 17.7 | 19.2 | 18.9 | – |
| CC(C)COC(=O)c1cccc2c(=O)cc(-c3ccccc3Cl)[nH]c12 [Example 112] | 24.3 | 10 | 25 | – |
| CC(=O)OCCOC(=O)c1cccc2c(=O)cc(-c3ccccc3Cl)[nH]c12 [Example 118] | 41.5 | 27.9 | 64.2 | – |
| CCOCCOC(=O)c1cccc2c(=O)cc(-c3ccccc3Cl)[nH]c12 [Example 120] | 10.7 | 29.4 | 20.3 | – |
| CC(O)COC(=O)c1cccc2c(=O)cc(-c3ccccc3Cl)[nH]c12 (stereo not drawn) [Example 125] | 10.4 | 17.2 | 15.6 | – |
| CCOC(=O)CC(=O)COC(=O)c1cccc2c(=O)cc(-c3ccccc3Cl)[nH]c12 [Example 130] | 20.3 | 18.3 | 12.7 | – |
| O=C(OCCO)c1cccc2c(=O)cc(-c3ccccc3F)[nH]c12 [Example 131] | 28.5 | 29.9 | 14 | – |
| O=C(OCCO)c1cccc2c(=O)cc(-c3ccc(Cl)cc3)[nH]c12 [Example 133] | 17 | 10 | 21.3 | – |
| Cc1ccc(-c2cc(=O)c3cccc(C(=O)OCCO)c3[nH]2)c(C)c1 [Example 136] | 19.4 | 26.9 | 15.4 | – |
| COc1ccc2c(c1)c(CC(=O)O)c(C)n2C(=O)c1ccc(Cl)cc1 [Indomethacin] | – | – | – | inhibition at 100 µM [3, 5]: 100%; inhibition at 10 µM [3, 5]: 100%; inhibition at 1 µM [3, 5]: 1.6%; inhibition at 100 µM [3, 6]: 2.6%; inhibition at 100 µM [3, 7]: 100%; inhibition at 10 µM [3, 7]: 100%; inhibition at 1 µM [3, 7]: 19.6% |
| O=C(O)c1cc(=O)c2c(OCC(O)COc3cccc4oc(C(=O)O)cc(=O)c34)cccc2o1 [Sodium chromoglicate] | – | – | – | effect on oral administration [4]: does not show any effect on oral administration |
| Ethyl 2-phenyl-4-quinolone-8-carboxylate [Example 80] | – | – | – | PCA Inhibition Ratio % [1]: 20.9%; % Inhibition (carrageenin edema) (carrageenin edema): 14.7%; 1/1000 mM SRS-A Inhibition Ratio % [2]: 52.4% |
